# Key:
# H460 xenografts = experiment: Example 5, NSCLC xenograft model H460; format: in vivo; conditions: for tumor reduction compared to placebo: higher doses 16, 2 or 1 mg/kg; for TV, median (IQR) / Median survival time: iv Q7dx3; for TV, median (IQR): high dose: PM060184 16, Comp. 2 2, Comp. 3 1 mg/kg; for antitumor activity compared to PM060184 (16 mg/kg) / mean time frame during which the animals had tumor remission / mean body weight reduction: compound 2 2.0 mg/kg, compound 3 1.0 mg/kg; for animals with complete tumor remission: highest dose: compound 2 2.0, compound 3 1.0 mg/kg; for mean body weight reduction: recorded on Day 9
# Experimental: (§1) Female athymic nu/nu mice (Harlan Laboratories Models, S.L. Barcelona, Spain or Envigo, Spain) were utilized for all experiments. Animal were housed in individually ventilated cages Sealsafe® Plus, Techniplast S.P.A.), up to ten per cage on a 12-hour light-dark cycle at 21-23° C. and 40-60% humidity. Mice were allowed free access to irradiated standard rodent diet (Tecklad 2914C) and sterilized water. Animals were acclimated for at least 5 days prior to tumor implantation with a tumor cell suspension.
# H460 cells were maintained in vitro at 37° C. with 5% CO2 in Dulbecco's Modified Eagle's Medium (Sigma-Aldrich, Co). Culture cells were passaged every 3 to 5 days upon reaching confluence. Each animal was subcutaneously implanted (on the right flank using 26G needle and a 1 cc syringe) at 4-6 weeks of age with 5×10^6 H460 cells suspended in 0.05 mL of a solution consisting of 50% Matrigel® (Corning Incorporated Life Sciences) and 50% medium without serum or antibiotics.
# (§2) All treatments were intravenously administered on a weekly basis at their MTD, ¼ MTD and 1/16 MTD (high, medium and low dose).
# (§3) Briefly: • 4 to 6 week-old athymic nu/nu female mice were subcutaneously implanted with tumor cells growing in culture. • When tumors reached a certain volume, tumor bearing animals (N=8-10/group) were randomly allocated into treatment groups. • Tumor dimensions and body weights were recorded 2-3 times per week starting from the first day of treatment (Day 0). Treatments producing >20% lethality and/or 20% net body weight loss were considered toxic. Tumor volume was calculated using the equation (a·b^2)/2, where a and b were the longest and shortest diameters, respectively. Animals were euthanized when their tumors reached ca. 2,000 mm^3 and/or severe necrosis was seen. • Median was calculated for tumor volume on each measurement day. • Antitumor effect was assessed comparing tumor volume data from groups following the 1st, 2nd, 3rd study weeks, or more depending on the case, using a two-tailed Mann-Whitney U test. The data are presented as medians and interquartile range (IQR). • Complete tumor regression (CR) was defined when tumor volume<63 mm^3 for 2 or more consecutive measurements. • Treatment tolerability was assessed by monitoring body weight evolution, clinical signs of systemic toxicity as well as evidences of local damage at the injection site.
# (§4) PM060184 was provided in the form of freeze-dried vials of lyophilized product. Each vial was reconstituted with water for infusion to a concentration of 2.5 mg/mL.
# (§5) Compounds 2 and 3 were provided in the powder form and were solubilized with hydroxy-propyl-β-cyclodextrin (HPβCD), reaching a concentration of 1 mg/ml or 0.2 mg/ml, respectively. Placebo was provided in the form of lyophilised cake containing 1.2 g of hydroxy-propyl-β-cyclodextrin (HPβCD) which was reconstituted with water for infusion.
# (§6) In these experiments, compounds 2, 3 and PM060184, as well as placebo, were intravenously administered once per week for 3 consecutive weeks, on Days 0, 7 and 14, whenever it was possible.
# The experiment was carried out as previously explained. When tumors reached ca. 160-170 mm^3, tumor bearing animals (N=10/group) were randomly allocated into the following treatment groups:
# (§7) Treatments were initiated on Day 0.
# HCT-116 xenografts = experiment: Example 7, colon xenograft model HCT-116; format: in vivo; conditions: for TV, median (IQR) / Median survival time: iv Q7dx3; for TV, median (IQR): high dose: PM060184 16, Comp. 2 2, Comp. 3 1 mg/kg; for mean time with tumor remission: high dose: compound 2 2.0, compound 3 1.0, PM060184 16 mg/kg; for animals in complete tumor remission: highest dose: compound 2 2.0, compound 3 1.0 mg/kg; for antitumor activity compared to PM060184-treated group at 16 mg/kg: once treatments were finalized (days 21 to 35), 2 at 2 mg/kg, 3 at 1 mg/kg; for mean body weight reduction: recorded on Day 9, compound 2 2.0 mg/kg, compound 3 1.0 mg/kg
# Experimental: as §1
# HCT116 cells were maintained in vitro at 37° C., 5% Co2 in McCoy's 5A Medium (Sigma Aldrich, Co.). Culture cells were passage every 3 to 5 days on reaching confluence. Each animal was subcutaneously implanted (on the right flank using 26G needle and a 1 cc syringe) at 4-6 weeks of age with 5×10^6 HCT116 cells suspended in 0.05 mL of a solution consisting of 50% Matrigel® (Corning Incorporated Life Sciences) and 50% medium without serum or antibiotics.
# as §2, §3, §4, §5, §6
# The experiment was carried out as previously explained. When tumors reached ca. 195-205 mm^3, tumor bearing animals (N=10/group) were randomly allocated into the following treatment groups:
# as §7
# [1] = high dose: compound 2 2.0, compound 3 1.0, PM060184 16 mg/kg
# [2] = low dose: PM060184 1.0, Comp. 2 0.125, Comp. 3 0.0625 mg/kg
# [3] = high dose: PM060184 16.0, Comp. 2 2.0, Comp. 3 1.0 mg/kg, ud = group not reached mortality
# [4] = medium dose: PM060184 4.0, Comp. 2 0.5, Comp. 3 0.25 mg/kg
# [5] = medium-dose: compound 2 0.5, compound 3 0.25 mg/kg
# [6] = high dose: PM060184 16.0, Comp. 2 2.0, Comp. 3 1.0 mg/kg
SMILES,tumor reduction compared to placebo (H460 xenografts; Day 7),"TV, median (IQR) (H460 xenografts; Day 7)","TV, median (IQR) (H460 xenografts; Day 14)","TV, median (IQR) (H460 xenografts; Day 21)","TV, median (IQR) (H460 xenografts; Day 28)","TV, median (IQR) (H460 xenografts; Day 35)",antitumor activity compared to PM060184 (16 mg/kg) (H460 xenografts),mean time frame during which the animals had tumor remission (H460 xenografts),tumor remissions lasted (H460 xenografts; [1]),animals with complete tumor remission (H460 xenografts),Median survival time (H460 xenografts; [2]),"TV, median (IQR) (HCT-116 xenografts; Day 7)","TV, median (IQR) (HCT-116 xenografts; Day 14)","TV, median (IQR) (HCT-116 xenografts; Day 21)","TV, median (IQR) (HCT-116 xenografts; Day 28)","TV, median (IQR) (HCT-116 xenografts; Day 35)",Median survival time (HCT-116 xenografts; [3]),mean time with tumor remission (HCT-116 xenografts),Median survival time (HCT-116 xenografts; [2]),Median survival time (HCT-116 xenografts; [4]),other results
COC1=CC[C@@H]([C@@H](C)/C=C(C)/C=C\C=C/C(=O)N[C@H](C(=O)N/C=C\C[C@H](CC=C(C)C)OC(N)=O)C(C)(C)C)OC1=O [Compound 3],"very strong, statistically significant tumor reduction",123.9 (93.4-157.6) mm3,80.3 (71.0-83.5) mm3,59.3 (38.7-62.5) mm3,77.6 (55.3-85.1) mm3,374.8 (257.4-438.2) mm3,"stronger, statistically significant, antitumor activity",7.8 days,more than 45.1 days,100%,14 days,121.6 (86.3-164.8) mm3,55.6 (16.2-82.3) mm3,32.0 (4.0-40.0) mm3,13.5 (4.0-13.5) mm3,13.5 (13.5-13.5) mm3,ud,23.7 days,14 days,49 days,"antitumor activity of compound 3 compared to compound 2 (H460 xenografts; at the MTD's, 1.0 mg/kg or 2.0 mg/kg): statistically significant higher antitumor activity than compound 2; Median survival time (H460 xenografts; high dose: PM060184 16.0, Comp. 2 2.0, Comp. 3 1.0 mg/kg, 1 mg/kg): 45.5 days; Median survival time (H460 xenografts; high dose: PM060184 16.0, Comp. 2 2.0, Comp. 3 1.0 mg/kg, listed as Comp. 3, 1 mg/kg): 48 days; Median survival time (H460 xenografts; medium dose: PM060184 4.0, Comp. 2 0.5, Comp. 3 0.25 mg/kg, 0.25 mg/kg): 40 days; Median survival time (H460 xenografts; medium dose: PM060184 4.0, Comp. 2 0.5, Comp. 3 0.25 mg/kg, listed as Comp. 3, 0.25 mg/kg): 38.5 days; mean body weight reduction (H460 xenografts): ca. −18.5%; animals in complete tumor remission (HCT-116 xenografts): 100%; animals that reached a complete remission (n/10) (HCT-116 xenografts; [5]): 1/10; complete remission lasted a mean of (HCT-116 xenografts; [5]): 2 days; antitumor activity compared to PM060184-treated group at 16 mg/kg (HCT-116 xenografts): big difference, in terms of antitumor activity, statistically significant; mean body weight reduction (HCT-116 xenografts): ca. −16.2%"
COC1=CC[C@@H]([C@@H](C)/C=C(C)/C=C\C=C/C(=O)N[C@H](C(=O)N/C=C\C[C@H](C/C=C(\C)F)OC(N)=O)C(C)(C)C)OC1=O [Compound 2],"very strong, statistically significant tumor reduction",114.7 (97.2-131.6) mm3,80.9 (61.1-109.3) mm3,53.5 (33.4-59.7) mm3,95.0 (73.2-119.1) mm3,505.4 (428.9-583.7) mm3,"stronger, statistically significant, antitumor activity",8.8 days,more than 48 days,100%,14 days,135.5 (114.1-154.5) mm3,57.2 (47.1-62.9) mm3,25.0 (13.5-34.0) mm3,13.5 (13.5-32.0) mm3,13.5 (13.5-13.5) mm3,ud,25.8 days,19 days,58 days,"Median survival time (H460 xenografts; [6]): 45.5 days; Median survival time (H460 xenografts; [4]): 40 days; tumor remissions lasted (H460 xenografts; medium dose: compound 2 0.5 mg/kg): 30.9 days; mean body weight reduction (H460 xenografts): ca. −13.4%; animals in complete tumor remission (HCT-116 xenografts): 100%; animals that reached a complete remission (n/10) (HCT-116 xenografts; [5]): 4/10; complete remission lasted a mean of (HCT-116 xenografts; [5]): 9 days; antitumor activity compared to PM060184-treated group at 16 mg/kg (HCT-116 xenografts): big difference, in terms of antitumor activity, statistically significant; mean body weight reduction (HCT-116 xenografts): ca. −13.5%"
"C/C=C\C[C@@H](C/C=C\NC(=O)[C@@H](NC(=O)\C=C/C=C\C(C)=C\[C@H](C)[C@@H]1CC=C(OC)C(=O)O1)C(C)(C)C)OC(N)=O [PM060184, reference compound]","very strong, statistically significant tumor reduction",100.1 (80.6-119.0) mm3,97.8 (74.5-149.3) mm3,129.4 (83.5-172.3) mm3,631.0 (454.0-873.9) mm3,1470 (1470-1666) mm3,–,–,two,–,16 days,140.5 (123.0-157.3) mm3,59.2 (50.7-84.2) mm3,63.8 (43.6-80.0) mm3,265.7 (195.2-284.3) mm3,650.2 (516.7-732.6) mm3,47 days,5.8 days,19 days,43 days,"animals with complete tumor remission (number out of 10) (H460 xenografts; PM060184 16 mg/kg): Four out of 10; Median survival time (H460 xenografts; [6]): 37 days; Median survival time (H460 xenografts; [4]): 30 days; body weight decrease (H460 xenografts; recorded on Day 12, PM060184 16 mg/kg): ca. −6.8%; animals that reached a complete remission (n/10) (HCT-116 xenografts; high-dose: PM060184 16 mg/kg): 6/10; body weight decrease (HCT-116 xenografts; recorded on Day 2, PM060184 16 mg/kg): ca. −3.2%"

# Source: patent publication US20250243174A1, “ANTITUMORAL COMPOUNDS” (PHARMA MAR, S.A., priority 2021, published 2025)
